Results taken from patent US9757393B2 (priority 2015, dated 2017).

Test system: membrane GLUT4
Assay: Western blotting of membrane GLUT4 in skeletal muscle
Format: in vivo, C57BL/6J mice
Settings: HFD-fed mice; for muscular membrane GLUT4 protein contents: vs HF group
Method: Experimental Animals: the experiments are conducted under the guidelines of the Institutional Animal Care and Use Committee of Central Taiwan University of Science and Technology. As previously described, four-week-old male C57BL/6J mice (n=63) is purchased from the National Laboratory Animal Breeding and Research Center, Ministry of Science and Technology. After 1-week of acclimatization, mice are designed to initiate the study, and the study lasts for 12 weeks. […] The CON group and high-fat control (HF) group are given with vehicle only. The low-fat diet consisted of fat 10%, whereas the high-fat diet (HFD) consisted of fat 45% (of total energy, % kcal). The compositions of the experimental diets are shown as described. At the end of the study, food is derived from the animals (from 10 p.m. to 10 a.m.). On the next day, the mice are sacrificed, and blood and tissue are collected for analysis. Livers, skeletal muscles, and white adipose tissues (WATs) (including epididymal, mesenteric and retroperitoneal WAT) are excised and weighed, and then immediately stored in a freezer at −80° C. Heparin (30 units/mL) (Sigma) is added to blood samples. Plasma samples are collected by centrifugation at 1600 g for 15 min at 4° C. within 30 min, and plasma is obtained for insulin and leptin level analysis.
Protein extractions and immunoblots for the determination of membrane GLUT4, phospho-AMPK (Thr172), and phospho-Akt (Ser 473) proteins are carried out on frozen skeletal muscle and liver tissue from mice, which follows a previous paper. Additionally, membrane GLUT4 is carried out on frozen skeletal muscle from mice, and the total membrane fractions are collected with buffer and centrifuged as a previously described. The protein contents of membrane GLUT4, phospho-AMPK, phospho-Akt, total AMPK, and total Akt are detected by western blotting. Western blotting has been determined as described elsewhere. Subsequently, antibodies are detected using horseradish peroxidase linked to a goat anti-IgG rabbit secondary antibody and visualized using an ECL system. Membrane GLUT4, structural proteins GAPDH and β-actin are purchased from Santa Cruz Biotechnology (Santa Cruz, Calif., USA); phospho-AMPK was obtained from Abcam Inc. (Cambridge, Mass., USA); phospho-Akt, total AMPK, and total Akt are from Cell Signaling Technology, Inc. (Danver Mass., USA); the BCA protein assay kit is from Thermo Scientific (Rockford, Ill., USA); and the ECL reagent kit is from GE Healthcare BioSciences (Buckinghamshire, UK). The secondary antibody antirabbit is from Jackson ImmunoResearch Laboratories, Inc. (West Grove, Pa., USA). The density blotting is analyzed using Alpha Easy FC software (Alpha Innotech Corp., Randburg, South Africa). Structural proteins GAPDH and β-actin are obtained by stripping the nitrocellulose membrane proteins of liver and skeletal muscle, respectively.

CC(C)[C@@H](C)C=C[C@@H](C)[C@H]1CC[C@H]2C3=CCC4C[C@@H](O)CC[C@]4(C)C3=CC[C@]12C (stereo partly drawn) [ergostatrien-3β-ol, ergosta-7,9(11),22-trien-3β-ol]
enhancement of muscular membrane GLUT4 protein (40 mg/kg/day): approximately 2.7 fold | muscular membrane GLUT4 protein contents (10 mg/kg/day): increased | muscular membrane GLUT4 protein contents (20 mg/kg/day): increased | muscular membrane GLUT4 protein contents (40 mg/kg/day): increased
